According to ChEMBL document CHEMBL5584341, “Discovery of Potent, Specific, and Orally Available NLRP3 Inflammasome Inhibitors Based on Pyridazine Scaffolds for the Treatment of Septic Shock and Peritonitis” (J Med Chem, 2024):

Experiments:
[1] = Inhibition of IL-1beta release in PMA-differentiated/ LPS and nigericin stimulated human THP-1 cells at 0.5 uM pretreated with LPS for 3 hrs followed by incubation with compound for 40 mins and later stimulated with nigericin for 40 mins by ELISA; format: functional; conditions: THP-1, 1.333 h, time 80 min
[2] = Inhibition of IL-1beta release in PMA-differentiated/ LPS and nigericin stimulated human THP-1 cells at 0.1 uM pretreated with LPS for 3 hrs followed by incubation with compound for 40 mins and later stimulated with nigericin for 40 mins by ELISA; format: functional; conditions: THP-1, 1.333 h, time 80 min
[3] = Inhibition of IL-1beta release in PMA-differentiated/ LPS and nigericin stimulated human THP-1 cells pretreated with LPS for 3 hrs followed by incubation with compound for 40 mins and later stimulated with nigericin for 40 mins by ELISA; format: functional, cell-based
hERG (KCNH2) = hERG (KCNH2) (Homo sapiens, UniProt Q12809); experiment: Inhibition of human ERG at 20 uM relative to control
hERG (KCNH2), sequence (Q12809 whole entry): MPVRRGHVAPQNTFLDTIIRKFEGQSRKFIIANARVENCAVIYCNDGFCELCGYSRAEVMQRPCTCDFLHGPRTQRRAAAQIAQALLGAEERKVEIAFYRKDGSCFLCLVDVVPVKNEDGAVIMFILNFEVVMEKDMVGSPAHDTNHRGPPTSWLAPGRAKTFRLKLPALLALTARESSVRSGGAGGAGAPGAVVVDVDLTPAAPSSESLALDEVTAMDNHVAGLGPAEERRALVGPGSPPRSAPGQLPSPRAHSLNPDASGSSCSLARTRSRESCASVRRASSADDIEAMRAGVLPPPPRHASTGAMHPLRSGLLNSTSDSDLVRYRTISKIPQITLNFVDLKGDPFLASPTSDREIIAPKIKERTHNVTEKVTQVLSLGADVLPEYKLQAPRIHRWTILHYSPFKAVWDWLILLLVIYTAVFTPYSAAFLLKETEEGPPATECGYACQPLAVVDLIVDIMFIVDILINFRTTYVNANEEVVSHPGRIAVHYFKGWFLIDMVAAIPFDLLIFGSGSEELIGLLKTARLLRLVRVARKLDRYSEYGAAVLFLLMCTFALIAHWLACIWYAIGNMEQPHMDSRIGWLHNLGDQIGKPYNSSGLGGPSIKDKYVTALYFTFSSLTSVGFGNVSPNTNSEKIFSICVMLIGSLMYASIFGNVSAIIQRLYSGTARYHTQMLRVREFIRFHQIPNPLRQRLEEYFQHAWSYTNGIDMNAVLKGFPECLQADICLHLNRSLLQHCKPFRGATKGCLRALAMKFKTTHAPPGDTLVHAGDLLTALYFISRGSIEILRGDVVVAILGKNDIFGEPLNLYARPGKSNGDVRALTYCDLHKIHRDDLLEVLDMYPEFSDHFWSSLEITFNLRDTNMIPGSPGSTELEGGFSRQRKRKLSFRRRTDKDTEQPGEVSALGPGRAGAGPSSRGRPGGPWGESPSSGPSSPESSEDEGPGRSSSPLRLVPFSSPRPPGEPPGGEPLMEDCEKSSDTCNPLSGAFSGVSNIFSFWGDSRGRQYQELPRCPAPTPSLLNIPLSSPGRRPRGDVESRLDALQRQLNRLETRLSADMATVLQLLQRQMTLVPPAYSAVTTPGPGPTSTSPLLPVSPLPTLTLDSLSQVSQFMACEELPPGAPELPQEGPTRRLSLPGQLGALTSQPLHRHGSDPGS

[4] = Metabolic stability in human liver microsomes assessed as intrinsic clearance per g protein at 10 uM […] in presence of NADPH by LC-MS/MS analysis; format: ADME, Microsome
[5] = Metabolic stability in human liver microsomes assessed as half life at 10 uM […] in presence of NADPH by LC-MS/MS analysis; format: ADME, Microsome

SMILES | inhibition at 0.5 µM [1] [%] | inhibition at 0.1 µM [2] [%] | IC50 [3] [nM] | inhibition at 20 µM (hERG (KCNH2)) [%] | intrinsic clearance [4] [mL/min] | half-life at 10 µM [5] [min]
CC(F)(F)CN1CCC[C@@H](Nc2nnc(-c3ccc(C(F)(F)F)cc3O)c3c2C2CCC3CC2)C1 | 49.9 | 29 |  |  |  | 
CN1CCO[C@H](CNc2nnc(-c3ccc4occc4c3O)c3c2C2CCC3CC2)C1 | 36.5 | 9.42 |  |  |  | 
Oc1cc(C(F)(F)F)ccc1-c1nnc(N[C@@H]2CCCC[C@H]2O)c2c1C1CCC2C1 (stereo not given in full) | 95.6 | 43.5 | 79 | 57.7 |  | 
CC(C)(F)CN1CCC[C@@H](Nc2nnc(-c3ccc(C(F)(F)F)cc3O)c3c2C2CCC3CC2)C1 | 95.8 | 55.4 |  |  |  | 
Oc1cc(C(F)(F)F)ccc1-c1nnc(N[C@@H]2CCCN(C3COC3)C2)c2c1C1CCC2CC1 | 96.5 | 52.9 |  |  |  | 
Oc1cc(C(F)(F)F)ccc1-c1nnc(N[C@@H]2CCC[C@H](O)C2)c2c1C1CCC2CC1 | 90.8 | 45 |  |  |  | 
Oc1cc(C(F)(F)F)ccc1-c1nnc(N[C@@H]2CCCN(C3CCOC3)C2)c2c1C1CCC2CC1 (stereo not given in full) | 96.8 | 95.2 | 49 |  |  | 
CN1CCC[C@@H](Nc2nnc(-c3ccc(C(F)(F)F)cc3O)c3c2C2CCC3C2)C1 (stereo not given in full) | 96.9 | 95 | 38 |  |  | 
Oc1cc(C(F)(F)F)ccc1-c1nnc(N[C@@H]2CCCC[C@H]2O)c2ccccc12 | 97.8 | 98.3 | 9 | 86 |  | 
Cc1c(N[C@@H]2CCCC[C@H]2O)nnc(-c2ccc(C(F)(F)F)cc2O)c1C | 98.3 | 97.8 | 12 |  |  | 
Oc1c(-c2nnc(N[C@@H]3CCOC3)c3c2C2CCC3CC2)ccc2occc12 | 30 | 25 |  |  |  | 
Oc1c(-c2nnc(N[C@@H]3CCCN(C4CC(F)(F)C4)C3)c3c2C2CCC3CC2)ccc2occc12 | 98.6 | 98.5 | 2 | -1.03 | 31 | 44.7
CN1CC[C@@H](Nc2nnc(-c3ccc(C(F)(F)F)cc3O)c3c2C2CCC3C2)C1 (stereo not given in full) | 32.7 | 12.1 |  |  |  | 
CC(CO)N1CCC[C@@H](Nc2nnc(-c3ccc4occc4c3O)c3c2C2CCC3CC2)C1 (stereo not given in full) | 99 | 98.8 | 4 | 71 | < 12 | > 120
Oc1c(-c2nnc(N[C@@H]3CCC[C@H](O)C3)c3c2C2CCC3CC2)ccc2occc12 | 98.2 | 97.2 | 4 | 59 | 20 | 69.3
Oc1cc(C(F)(F)F)ccc1-c1nnc(N[C@@H]2CCCN(C3CC(F)(F)C3)C2)c2c1C1CCC2C1 (stereo not given in full) | 96.3 | 72.8 | 76 |  |  | 
Oc1cc(C(F)(F)F)ccc1-c1nnc(N[C@@H]2CCCN(CC3CC3)C2)c2c1C1CCC2C1 (stereo not given in full) | 97.2 | 83.9 | 87 |  |  | 
Oc1cc(C(F)(F)F)ccc1-c1nnc(N[C@@H]2CCCN(C3CC(F)(F)C3)C2)c2c1C1CCC2CC1 | 97.4 | 96.3 | 25 | 15.5 |  | 
Oc1cc(OC(F)(F)F)ccc1-c1nnc(N[C@@H]2CCCN(C3CC(F)(F)C3)C2)c2c1C1CCC2CC1 | 93.2 | 46.5 |  |  |  | 
Oc1cc(C(F)(F)F)ccc1-c1nnc(N[C@@H]2CCCN(C3CCC3)C2)c2c1C1CCC2CC1 | 97.1 | 96.8 | 27 |  |  | 

SMILES | inhibition at 0.5 µM [1] [%] | inhibition at 0.1 µM [2] [%] | IC50 [3] [nM] | inhibition at 20 µM (hERG (KCNH2)) [%] | intrinsic clearance [4] [mL/min] | half-life at 10 µM [5] [min]
Oc1cc(C(F)(F)F)ccc1-c1nnc(N[C@@H]2CCCN(CC(F)F)C2)c2c1C1CCC2CC1 | 73.8 | 19.7 |  |  |  | 
Oc1cc(C(F)(F)F)ccc1-c1nnc(N[C@@H]2CCCNC2)c2c1C1CCC2CC1 | 94.3 | 46.5 | 103 |  |  | 
Cc1ccc(-c2nnc(N[C@@H]3CCCN(C4CC(F)(F)C4)C3)c3c2C2CCC3CC2)c(O)c1 | 96.6 | 60.2 | 53 | 63.8 |  | 
OCCN1CCC[C@@H](Nc2nnc(-c3ccc(C(F)(F)F)cc3O)c3c2C2CCC3CC2)C1 | 99.2 | 98.6 | 42 |  |  | 
Oc1cc(C(F)(F)F)ccc1-c1nnc(N[C@@H]2CCCC[C@H]2O)c2c1C1CCC2CC1 | 85.8 | 35.9 | 124 | -1.93 |  | 
OC[C@@H](O)CNc1nnc(-c2ccc(C(F)(F)F)cc2O)c2c1C1CCC2CC1 | 74.5 | 20.3 |  |  |  | 
CN1CCC[C@@H](Nc2nnc(-c3ccc(C(F)(F)F)cc3O)c3c2C2CCC3CC2)C1 | 97.4 | 97 | 38 |  |  | 
[2H]C([2H])([2H])C([2H])([2H])N1CCC[C@@H](Nc2nnc(-c3ccc4occc4c3O)c3c2C2CCC3CC2)C1 | 98.5 | 98.6 | 1 | 85.8 | < 12 | > 120
CCN1CCC[C@@H](Nc2nnc(-c3ccc4occc4c3O)c3c2C2CCC3CC2)C1 | 98.3 | 98.6 | 1 | 85.3 | < 12 | > 120
Oc1cc(Cl)ccc1-c1nnc(N[C@@H]2CCCN(C3CC(F)(F)C3)C2)c2c1C1CCC2CC1 | 95.3 | 88 | 26 | 23.9 |  | 
Oc1cc(C(F)(F)F)ccc1-c1nnc(N[C@@H]2CCCC[C@H]2O)c2c1CCCC2 | 98.3 | 92.4 | 6 | 84.1 |  | 
CN1CCC[C@H](Nc2nnc(-c3ccc(C(F)(F)F)cc3O)c3c2C2CCC3C2)C1 (stereo not given in full) | 3.09 | 5.31 |  |  |  | 
N#Cc1ccc(-c2nnc(N[C@@H]3CCCN(C4CC(F)(F)C4)C3)c3c2C2CCC3CC2)c(O)c1 | 91.5 | 51.7 |  |  |  | 
CCN1CCC[C@@H](Nc2nnc(-c3ccc(C(F)(F)F)cc3O)c3c2C2CCC3C2)C1 (stereo not given in full) | 96.3 | 92.5 | 27 |  |  | 
N#CCN1CCC[C@@H](Nc2nnc(-c3ccc(C(F)(F)F)cc3O)c3c2C2CCC3C2)C1 (stereo not given in full) | 77 | 7.6 |  |  |  | 
CN1C[C@H](Nc2nnc(-c3ccc4occc4c3O)c3c2C2CCC3CC2)CC(F)(F)C1 | 97.7 | 55.5 |  |  |  | 
Oc1c(-c2nnc(N[C@@H]3CCCN(C4CC(F)(F)C4)C3)c3c2C2CCC3CC2)ccc2sccc12 | 96.9 | 61.9 | 57 | 69.4 |  | 
CN1C[C@H](F)C[C@@H](Nc2nnc(-c3ccc4occc4c3O)c3c2C2CCC3CC2)C1 | 98.6 | 98.6 | 5 | 78.5 | < 12 | > 120
Oc1cc(C(F)(F)F)ccc1-c1nnc(N[C@@H]2CCCN(C3CCC3)C2)c2c1C1CCC2C1 (stereo not given in full) | 97.2 | 94.6 | 49 |  |  | 
Oc1c(-c2nnc(N[C@@H]3CCCC[C@H]3O)c3c2C2CCC3CC2)ccc2occc12 | 96.3 | 94.9 | 6 | 60 | < 12 | > 120
